Test systems include EKVX; UACC-257; SK-MEL-5; SK-MEL-28; LOX IMVI; SW-620; NCI-H226; CAKI-1; HL-60; MOLT-4; A549; KM12; MCF7; OVCAR-3; NCI-H460; SF-539; NCI-H522; COLO 205; SF-268; ACHN.
Experiment in all cases: NCI tumour cell line growth inhibition, 48 h

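Compound exposure: 48 hours, 5 concentrations, 96-well plates. GI50: concentration for 50% inhibition of growth.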 The source made the active and inactive calls. Rule as the data show it: active = GI50 up to about 1.1 µM and inactive = higher.

Take `COc1ccc2c(c1)CCCc1c-2nc2ccccc2c1N`: the GI50 in the assay with EKVX is 6.28 µM (inactive); in the assay with UACC-257, 2.45 µM (inactive); with SK-MEL-5, 3.72 µM (inactive); in the assay with SK-MEL-28 it was 10.8 µM (inactive); with LOX IMVI, 8.57 µM (inactive); with SW-620 it was 10.7 µM (inactive). Also, the GI50 was 13.8 µM (inactive) in the assay on NCI-H226; 9.02 µM (inactive) in the assay with CAKI-1; 13.9 µM (inactive) with HL-60; 8.59 µM (inactive) with MOLT-4; 12.9 µM (inactive) with A549; 14 µM (inactive) in the assay with KM12. Besides, the GI50 was 11.2 µM (inactive) with MCF7; 12.9 µM (inactive) in the assay on OVCAR-3; 4.44 µM (inactive) in the assay with NCI-H460; 12.4 µM (inactive) in the assay with SF-539; 13.6 µM (inactive) in the assay on NCI-H522; 1.69 µM (inactive) in the assay on COLO 205. Besides, the GI50 in the assay with SF-268 is 15.3 µM (inactive); with ACHN it was 13.6 µM (inactive).

As for `C[N+](C)(N)c1nc(N)c(C#N)c(C#N)c1C#N`, the GI50 in the assay on EKVX, with SK-MEL-5, in the assay on SK-MEL-28, in the assay on LOX IMVI, in the assay with SW-620 and in the assay with NCI-H226 was > 10 µM (inactive) throughout. Also, the GI50 was > 10 µM (inactive) in the assay with CAKI-1; > 10 µM (inactive) in the assay on HL-60; > 10 µM (inactive) in the assay on MOLT-4; > 10 µM (inactive) with A549; > 10 µM (inactive) in the assay on MCF7; 1.91 µM (inactive) in the assay with OVCAR-3. The GI50 in the assay on NCI-H460, in the assay with SF-539, in the assay on NCI-H522, with COLO 205, in the assay with SF-268 and with ACHN was > 10 µM (inactive) in each case.

As for `O=S(=O)(OI(O)CC(F)(F)F)C(F)(F)F`, the GI50 in the assay with EKVX, with UACC-257, in the assay on SK-MEL-5, in the assay with SK-MEL-28, in the assay on LOX IMVI and with SW-620 was > 100 µM (inactive) throughout. Further, the GI50 with NCI-H226, with CAKI-1, with HL-60, in the assay with MOLT-4, with A549 and in the assay with KM12 was > 100 µM (inactive) throughout. Further, the GI50 in the assay with MCF7, in the assay with OVCAR-3, in the assay on NCI-H460, in the assay on SF-539, in the assay on NCI-H522 and in the assay with COLO 205 was > 100 µM (inactive) in each case. Also, the GI50 in the assay with SF-268 and with ACHN was > 100 µM (inactive) each time.

In the case of `COc1ccc(C(c2cc(OC)c(OC)c(OC)c2)N2C(=O)CCC2C(=O)O)cc1` (configuration not stated), the GI50 with EKVX is > 100 µM (inactive); with UACC-257, > 100 µM (inactive); in the assay on SK-MEL-5, 41.9 µM (inactive); in the assay with SK-MEL-28, 51.1 µM (inactive); in the assay on LOX IMVI it was 66.8 µM (inactive); in the assay on SW-620 it was 50.1 µM (inactive). Moreover, the GI50 in the assay with NCI-H226 was 74.3 µM (inactive); with CAKI-1, 79.6 µM (inactive); in the assay with HL-60, 32 µM (inactive); in the assay on MOLT-4, 72.6 µM (inactive); with A549 it was 40.2 µM (inactive); in the assay on KM12 it was 35.6 µM (inactive). In addition, the GI50 is 62.4 µM (inactive) in the assay on MCF7; 33.8 µM (inactive) with OVCAR-3; 38.8 µM (inactive) with NCI-H460; 21.2 µM (inactive) with SF-539; 52.1 µM (inactive) in the assay on NCI-H522; 41 µM (inactive) with COLO 205. Also, the GI50 in the assay on SF-268 is > 100 µM (inactive); in the assay on ACHN it was 89.3 µM (inactive).

As to `N=C(N)NS(=O)(=O)c1ccc(Nc2c3ccccc3nc3c(C(=O)NCCO)cccc23)cc1`, the GI50 with EKVX is 0.248 µM (active); in the assay on UACC-257, 0.243 µM (active); with SK-MEL-5 it was 0.142 µM (active); in the assay with SK-MEL-28, 0.248 µM (active); with LOX IMVI, 0.143 µM (active); with SW-620, 0.188 µM (active). In addition, the GI50 in the assay on NCI-H226 was 0.142 µM (active); in the assay with CAKI-1 it was 0.205 µM (active); with HL-60 it was 0.293 µM (active); in the assay on MOLT-4 it was 0.0885 µM (active); with A549, 0.157 µM (active); with KM12, 0.177 µM (active). For the same compound, the GI50 is 0.0282 µM (active) with MCF7; 0.142 µM (active) in the assay with OVCAR-3; 0.127 µM (active) in the assay on NCI-H460; 0.193 µM (active) with SF-539; 0.158 µM (active) with NCI-H522; 0.16 µM (active) in the assay with COLO 205. Also, the GI50 in the assay on SF-268 is 0.171 µM (active); with ACHN, 0.219 µM (active).

In the case of `Brc1sc(Br)c2c1[C@H](Br)C[C@@H]2Br`, the GI50 with EKVX was > 100 µM (inactive); with UACC-257, 40.2 µM (inactive); in the assay on SK-MEL-5, 57.1 µM (inactive); in the assay with SK-MEL-28, 28 µM (inactive); with LOX IMVI it was 17.4 µM (inactive); in the assay with SW-620 it was 38.7 µM (inactive). Besides, the GI50 with NCI-H226 was 23.1 µM (inactive); with CAKI-1, 33.8 µM (inactive); in the assay with HL-60, 30.7 µM (inactive); in the assay with MOLT-4, 8.97 µM (inactive); in the assay on A549, 30 µM (inactive); in the assay on KM12, 44.9 µM (inactive). For the same compound, the GI50 in the assay with MCF7 was 29.6 µM (inactive); with OVCAR-3, 41.9 µM (inactive); in the assay with NCI-H460, 27.5 µM (inactive); with SF-539, 19.1 µM (inactive); in the assay with NCI-H522, 16.3 µM (inactive); with COLO 205, 53.6 µM (inactive). The figures for the GI50 in the assay with SF-268 and in the assay on ACHN were 20.7 µM (inactive) and 32.8 µM (inactive), respectively.

On to `CC(=O)c1cc(I)c(O)c2ncccc12`, for which the GI50 in the assay with EKVX was 6.49 µM (inactive); with UACC-257 it was 2.66 µM (inactive); in the assay on SK-MEL-5 it was 2.29 µM (inactive); in the assay with SK-MEL-28, 4.09 µM (inactive); in the assay with LOX IMVI, 3.85 µM (inactive); with SW-620, 4.17 µM (inactive). Moreover, the GI50 is 2.33 µM (inactive) in the assay on NCI-H226; 3.08 µM (inactive) with CAKI-1; 2.03 µM (inactive) in the assay on HL-60; 2.42 µM (inactive) in the assay with MOLT-4; 4.34 µM (inactive) with A549; > 10 µM (inactive) in the assay on KM12. The GI50 is 4.73 µM (inactive) in the assay on MCF7; 3.21 µM (inactive) in the assay with OVCAR-3; 4.06 µM (inactive) in the assay with NCI-H460; 3.05 µM (inactive) with SF-539; 3.6 µM (inactive) in the assay with NCI-H522; 3.11 µM (inactive) in the assay with COLO 205. In addition, the GI50 is 3.22 µM (inactive) with SF-268 and 2.43 µM (inactive) in the assay on ACHN.

For the compound `CN(C)CCCCN1c2ccccc2Sc2ccc(N=[N+]=[N-])cc21`, the GI50 in the assay on EKVX is 13.2 µM (inactive); with UACC-257 it was 1.92 µM (inactive); in the assay on SK-MEL-5, 1.67 µM (inactive); in the assay with SK-MEL-28 it was 1.91 µM (inactive); with LOX IMVI, 2.26 µM (inactive); in the assay with SW-620, 4.82 µM (inactive). Further, the GI50 was 6.11 µM (inactive) with NCI-H226; 5.62 µM (inactive) in the assay on CAKI-1; 2.06 µM (inactive) in the assay with HL-60; 1.39 µM (inactive) in the assay on MOLT-4; 9.93 µM (inactive) with A549; 3.15 µM (inactive) in the assay on KM12. Besides, the GI50 in the assay with MCF7 was 2.45 µM (inactive); in the assay on OVCAR-3, 6.05 µM (inactive); in the assay on NCI-H460, 4.09 µM (inactive); with SF-539 it was 5.05 µM (inactive); in the assay on NCI-H522 it was 4.09 µM (inactive); with COLO 205 it was 1.72 µM (inactive). Also, the GI50 is 5.97 µM (inactive) in the assay on SF-268 and 3.2 µM (inactive) in the assay on ACHN.

In the case of `O=C(NCCNCCCNC(=O)c1cc(-c2ccccc2)nc2ccccc12)c1cccc(OCc2ccccc2)c1OCc1ccccc1`, the GI50 was 1.69 µM (inactive) in the assay on EKVX; 1.83 µM (inactive) in the assay with UACC-257; 1.71 µM (inactive) in the assay with SK-MEL-5; 1.81 µM (inactive) with SK-MEL-28; 1.57 µM (inactive) in the assay on LOX IMVI; 1.77 µM (inactive) with SW-620. Moreover, the GI50 is 1.69 µM (inactive) in the assay on NCI-H226; 1.61 µM (inactive) in the assay on CAKI-1; 1.6 µM (inactive) in the assay with HL-60; 1.85 µM (inactive) with MOLT-4; 1.74 µM (inactive) in the assay on A549; 1.83 µM (inactive) in the assay on KM12. Also, the GI50 was 1.66 µM (inactive) in the assay on MCF7; 1.95 µM (inactive) in the assay on OVCAR-3; 2.13 µM (inactive) with NCI-H460; 1.77 µM (inactive) with SF-539; 1.73 µM (inactive) with NCI-H522; 1.69 µM (inactive) in the assay with COLO 205. Also, the GI50 is 1.88 µM (inactive) with SF-268 and 1.73 µM (inactive) in the assay with ACHN.

With `CC1CCC2(CC1)NC1=C(CC(C)CC1)C1=C2CC(C)CC1` (configuration not stated), the GI50 with EKVX is 39.1 µM (inactive); in the assay with UACC-257, 25.3 µM (inactive); in the assay on SK-MEL-5, 12.1 µM (inactive); with SK-MEL-28 it was 17.7 µM (inactive); in the assay on LOX IMVI it was 18.3 µM (inactive); in the assay with SW-620 it was 18.9 µM (inactive). Also, the GI50 in the assay on NCI-H226 is 16.7 µM (inactive); in the assay on CAKI-1 it was 22 µM (inactive); in the assay on HL-60, 14.4 µM (inactive); in the assay with MOLT-4, 7.14 µM (inactive); in the assay on A549 it was 36.8 µM (inactive); with KM12 it was 18.1 µM (inactive). In addition, the GI50 was 17.6 µM (inactive) in the assay on MCF7; 17.6 µM (inactive) with OVCAR-3; 23.8 µM (inactive) in the assay with NCI-H460; 22.1 µM (inactive) in the assay on SF-539; 19.3 µM (inactive) in the assay with NCI-H522; 20.4 µM (inactive) in the assay on COLO 205. Further, the GI50 in the assay with ACHN is 23.3 µM (inactive).

The record behind these values is ChEMBL document CHEMBL1201862, “PubChem BioAssay data set” (2004).
